According to patent US12338219B2, “Antimalarial agents” (Merck Sharp & Dohme LLC, priority 2019, dated 2025):

Tested on: parasites (ring stage parasites, parasite growth)
Assay: Parasite LDH growth assay (Parasite Assay), antiparasite potency
Assay type: cell-based
Conditions: 72 h, 72 hours growth, LDH readout; Table 3
Procedure: Assessing Antiparasite Potency in a Parasite LDH Growth Assay (Parasite Assay) The parasite stock was maintained at […] in RPMI-Hepes media buffered with sodium bicarbonate and supplemented with […]. […] On the day of assay set up, a blood smear of the parasite culture was Giemsa stained and counted. The parasitemia was adjusted to 0.7% rings and the haematocrit was diluted to 2% in RPMI-Hepes media buffered with sodium bicarbonate and supplemented with 500 heat inactivated human serum and 0.5% albumax. 30 ul of diluted parasites are then added into 10 ul of media+compound in pre-prepared Greiner TC assay plates. Parasite assay plates were placed in gassed humidified boxes in single layer and allowed to incubate at 37° C. for 72 hours. After 72 hours growth, assay plates are sealed with parafilm and frozen flat, in single file at −80° C. overnight. On the following day, assay plates are allowed to thaw at room temperature for 4 hours to which an LDH assay is performed to measure parasite growth.

SMILES	EC50
CC1(C)CC(=O)N([C@H](c2cncc(Cl)c2)[C@@H]2C[C@H]2C(=O)N[C@H]2C[C@H](C(F)(F)F)Oc3ccccc32)C(=N)N1 [Example 60A]	0.5 nM
CCC1(CC)CC(=O)N(C[C@@H]2C(C)[C@H]2C(=O)N[C@H]2C[C@H](C(F)(F)F)Oc3ccccc32)C(=N)N1 (stereo partly drawn) [Example 28A]	12 nM
COCC[C@H]([C@@H]1C[C@H]1C(=O)N[C@@H]1CC(C)(C)Oc2cccc(F)c21)N1C(=N)NC(C)(C)CC1=O [Example 88B]	10 nM
CCC1(CC)CC(=O)N(C[C@@H]2C[C@H]2C(=O)N[C@H]2CCOc3ccccc32)C(=N)N1 [Example 4B]	26 nM
COCC[C@H]([C@@H]1C[C@H]1C(=O)N[C@@H]1CC(C)(C)Oc2cc(Cl)ccc21)N1C(=N)NC(C)(C)CC1=O [Example 89B]	22 nM
CC(C)C1(C)CC(NC(=O)[C@@H]2C[C@H]2CN2C(=N)NC(C)(C)CC2=O)c2ccccc2O1 (stereo partly drawn) [Example 79A]	255 nM
CC[C@]1(C)CC(=O)N([C@@H](CCOC)[C@@H]2C[C@H]2C(=O)N[C@H]2C[C@H](C(F)(F)F)Oc3ccccc32)C(=N)N1 [Example 62A]	31 nM
CC1(C)CC(=O)N(C(c2cccc(C#N)c2)[C@@H]2C[C@H]2C(=O)NC2CC(C)(C)Oc3ccc(F)cc32)C(=N)N1 (stereo partly drawn) [Example 53A]	3.1 nM
COCC[C@H]([C@@H]1C[C@H]1C(=O)N[C@H]1CC(C)(C)Oc2c(F)cc(F)cc21)N1C(=N)NC(C)(C)CC1=O [Example 113B]	7.5 nM
Cc1ccc2c(c1)OC(C)(C)C[C@H]2NC(=O)[C@@H]1C[C@H]1[C@@H](c1cccnc1)N1C(=N)NC(C)(C)CC1=O [Example 85A]	2.4 nM
COCC[C@H]([C@@H]1C[C@H]1C(=O)N[C@@H]1CC(C)(C)Oc2cccc(OC)c21)N1C(=N)NC(C)(C)CC1=O [Example 74A]	33 nM
CCC1(CC)CC(=O)N(C[C@@H]2C[C@H]2C(=O)N[C@@H]2CC(C)(C)Oc3ccc(F)cc32)C(=N)N1 [Example 7B]	29 nM
CC[C@]1(C)CC(=O)N([C@H](CCOC)[C@@H]2C[C@H]2C(=O)N[C@H]2CC(C)(C)Oc3ccc(C)cc32)C(=N)N1 [Example 123]	2 nM
CC1(C)CC(=O)N([C@@H](c2cncc(Cl)c2)[C@@H]2C[C@H]2C(=O)N[C@H]2C[C@H](C(F)(F)F)Oc3ccccc32)C(=N)N1 [Example 60B]	100 nM
CC1(C)CC(=O)N([C@H](c2ccc(C#N)cc2)[C@@H]2C[C@H]2C(=O)N[C@@H]2c3ccccc3OC(C)(C)[C@H]2O)C(=N)N1 [Example 46]	2.5 nM
CCC1(CC)CC(=O)N([C@H](CCOC)[C@@H]2C[C@H]2C(=O)N[C@H]2CC(C)(C)Oc3ccccc32)C(=N)N1 [Example 1A]	1 nM
CCC1(CC)CC(=O)N([C@H](c2cccnc2)[C@@H]2C[C@H]2C(=O)N[C@H]2c3ccccc3OC(C)(C)[C@@H]2O)C(=N)N1 [Example 11A]	4.1 nM
COCC[C@H]([C@@H]1C[C@H]1C(=O)N[C@H]1CCOc2ccccc21)N1C(=N)N[C@](C)(C(C)C)CC1=O [Example 22]	44 nM

SMILES	EC50
COCC[C@H]([C@@H]1C[C@H]1C(=O)N[C@H]1CC(C)(C)Oc2cccc(OC(F)(F)F)c21)N1C(=N)NC(C)(C)CC1=O [Example 107A]	2.1 nM
CC[C@]1(C)CC(=O)N([C@H](CCOC)[C@@H]2C[C@H]2C(=O)N[C@@H]2c3ccccc3OC(C)(C)[C@H]2O)C(=N)N1 [Example 61]	6.9 nM
CC1(C)CC(=O)N([C@H](c2cccc(C#N)c2)[C@@H]2C[C@H]2C(=O)N[C@@H]2c3ccccc3OC(C)(C)[C@H]2O)C(=N)N1 [Example 51]	5.3 nM
CCC1(CC)CC(=O)N([C@H](c2cccnc2)[C@H]2[C@H](C(=O)N[C@H]3C[C@H](C(F)(F)F)Oc4ccccc43)C2(C)C)C(=N)N1 [Example 44B]	0.9 nM
CC1(C)CC(=O)N([C@@H](c2ccc(C#N)cc2)[C@@H]2C[C@H]2C(=O)N[C@H]2C[C@H](C(F)(F)F)Oc3ccccc32)C(=N)N1 [Example 47A]	155 nM
CC1(C)CC(=O)N(C(c2cccnc2)[C@H]2[C@H](C(=O)N[C@H]3CC(C)(C)Oc4ccccc43)C2(C)C)C(=N)N1 (stereo partly drawn) [Example 49A]	20 nM
CCC1(CC)CC(=O)N(C[C@@H]2C[C@H]2C(=O)N[C@H]2C[C@H](C(F)(F)F)Oc3ccccc32)C(=N)N1 [Example 8A]	37 nM
CC1(C)CC(=O)N([C@H](c2cccc(C#N)c2)[C@@H]2C[C@H]2C(=O)N[C@H]2C[C@H](C(F)(F)F)Oc3ccccc32)C(=N)N1 [Example 52]	1 nM
CCC1(CC)CC(=O)N([C@H](c2cccnc2)[C@H]2[C@H](C(=O)N[C@H]3CC(C)(C)Oc4ccccc43)C2(C)C)C(=N)N1 [Example 48A]	2.7 nM
CCC1(CC)CC(=O)N(C[C@@H]2[C@@H](C(=O)N[C@@H]3c4ccccc4OC(C)(C)[C@H]3O)C2(F)F)C(=N)N1 [Example 18B]	180 nM
CC1(C)CC(=O)N(C[C@@H]2C[C@H]2C(=O)NC2CC(C)(C)Oc3c(Cl)cc(Cl)cc32)C(=N)N1 (stereo partly drawn) [Example 97A]	180 nM
CCC1(CC)CC(NC(=O)[C@@H]2C[C@H]2[C@@H](CCOC)N2C(=N)NC(C)(C)CC2=O)c2ccccc2O1 (stereo partly drawn) [Example 92A]	7.6 nM
CC1(C)CC(=O)N([C@H](c2cccc(C#N)c2)[C@@H]2C[C@H]2C(=O)N[C@H]2CC(C)(C)Oc3ccccc32)C(=N)N1 [Example 50]	3 nM
CC1(C)CC(=O)N(C[C@@H]2C[C@H]2C(=O)N[C@H]2CC(C)(C)Oc3ccc(C(F)(F)F)cc32)C(=N)N1 [Example 100]	170 nM
CC[C@]1(C)CC(=O)N([C@H](CCOC)[C@@H]2C[C@H]2C(=O)NC2CC(C)(C)Oc3ccc(OC(F)(F)F)cc32)C(=N)N1 (stereo partly drawn) [Example 129A]	1.3 nM
CCC1(CC)CC(=O)N([C@H](c2cccnc2)[C@@H]2C(C)[C@H]2C(=O)N[C@H]2CC(C)(C)Oc3ccccc32)C(=N)N1 (stereo partly drawn) [Example 56B]	0.7 nM
COCC[C@H]([C@@H]1C[C@H]1C(=O)N[C@H]1CC(C)(C)Oc2cc(C)ccc21)N1C(=N)NC(C)(C)CC1=O [Example 83A]	6.6 nM

Same assay, conditions: 72 h, 72 hours growth, LDH readout; Table 4 (unit inferred)

SMILES	EC50
CCC1(CC)CC(=O)N([C@H](CCOC)[C@@H]2C[C@H]2C(=O)N[C@H]2c3ccccc3OC(C)(C)[C@@H]2O)C(=N)N1 [Example 144]	165 nM
CCC1(CC)CC(=O)N([C@H](CCOC)[C@@H]2C[C@H]2C(=O)N[C@H]2CC(C)(C)Oc3ccc(Cl)cc32)C(=N)N1 [Example 146]	1.1 nM

Same assay, conditions: 72 hours growth, LDH readout; Table 3

SMILES	EC50
CC[C@]1(C)CC(=O)N([C@H](CCOC)[C@@H]2C[C@H]2C(=O)NC2CC(C)(C)Oc3ccc(F)cc32)C(=N)N1 (single isomer, unassigned) [Example 130B]	2.4 nM
COCC[C@H]([C@@H]1C[C@H]1C(=O)NC1CC(C)(C(C)C)Oc2ccccc21)N1C(=N)NC(C)(C)CC1=O (single isomer, unassigned) [Example 80C]	14 nM
CC1(C)CC(=O)N([C@H](c2cccnc2)[C@@H]2C[C@H]2C(=O)NC2CC(C)(C)Oc3ccc(F)cc32)C(=N)N1 (single isomer, unassigned) [Example 98A]	0.9 nM
CCC1(CC)CC(=O)N(C[C@@H]2C(C)[C@H]2C(=O)N[C@@H]2c3ccccc3CC2(C)O)C(=N)N1 (single isomer, unassigned) [Example 29B]	351 nM
CCC1(CC)CC(=O)N(C[C@@H]2C(C)[C@H]2C(=O)N[C@@H]2c3ccccc3OCC2(C)O)C(=N)N1 (single isomer, unassigned) [Example 35B]	220 nM
CC(C)C1(C)CC(NC(=O)[C@@H]2C[C@H]2[C@@H](c2cccnc2)N2C(=N)NC(C)(C)CC2=O)c2ccccc2O1 (single isomer, unassigned) [Example 81A]	2.7 nM
CC[C@]1(C)CC(=O)N(C(c2cncc(F)c2)[C@@H]2C[C@H]2C(=O)N[C@@H]2c3ccccc3OC(C)(C)C2(C)O)C(=N)N1 (single isomer, unassigned) [Example 103A]	29 nM
CCC1(CC)CC(=O)N(C[C@@H]2C(C)[C@H]2C(=O)N[C@@H]2c3ccccc3OCC2(C)O)C(=N)N1 (single isomer, unassigned) [Example 35A]	85 nM
CC1(C)CC(=O)N([C@H](c2cccnc2)[C@@H]2C[C@H]2C(=O)NC2CC(C)(C)Oc3c(F)cccc32)C(=N)N1 (stereo partly drawn) [Example 93B]	2.4 nM
CCC1(CC)CC(=O)N(CC2C(C(=O)N[C@H]3CC(C)(C)Oc4ccccc43)C2(F)F)C(=N)N1 (single isomer, unassigned) [Example 16B]	119 nM
CCC1(CC)CC(=O)N(CC2C(C(=O)N[C@H]3CCOc4ccccc43)C2(F)F)C(=N)N1 (stereo partly drawn) [Example 15B]	230 nM
COCC[C@H]([C@@H]1C[C@H]1C(=O)NC1CC(C)(C)Oc2ccccc21)N1C(=N)NC(C)(C)CC1=O (stereo partly drawn) [Example 23B]	15 nM
CC(C)C1(C)CC(NC(=O)[C@@H]2C[C@H]2CN2C(=N)NC(C)(C)CC2=O)c2ccccc2O1 (single isomer, unassigned) [Example 79C]	289 nM
COCC[C@H]([C@@H]1C[C@H]1C(=O)N[C@H]1C[C@H](C(F)(F)F)Oc2ccccc21)N1C(=N)N[C@](C)(C(C)C)CC1=O [Example 21B]	1 nM
COCC[C@H]([C@@H]1C[C@H]1C(=O)NC1CC(C)(C)Oc2cc(F)ccc21)N1C(=N)NC(C)(C)CC1=O (stereo partly drawn) [Example 76B]	15 nM

Same assay, conditions: 72 hours growth, LDH readout; Table 4 (unit inferred)

SMILES	EC50
CCC1(CC)CC(=O)N([C@H](CCOC)[C@@H]2C[C@H]2C(=O)NC2CC(C)(C)Oc3cc(Cl)ccc32)C(=N)N1 (single isomer, unassigned) [Example 147B]	8.2 nM
CCC1(CC)CC(=O)N(C(CC(C)OC)[C@@H]2C[C@H]2C(=O)N[C@H]2CC(C)(C)Oc3ccccc32)C(=N)N1 (single isomer, unassigned) [Example 142C]	205 nM
